Data from publication PMC9233675, “Ru(II) photocages enable precise control over enzyme activity with red light” (Nature Communications, 2022).
Positions count from the first letter of the chain named. Values joined by “and” are separate entries in the source; they are usually repeats but may differ in a detail not shown here. Equal values may be shown once.

What was measured:
CYP1B1 S127A = target: T1, CYP1B1 S127A (Homo sapiens, UniProt Q16678, S127A); experiment: In cell CYP1B1 activity assay, S127A variant; conditions: for logSI S127A: log of the ratio of IC50 values mutant vs WT (Fig. 3c)
T1 sequence (Q16678 1-543 S127A): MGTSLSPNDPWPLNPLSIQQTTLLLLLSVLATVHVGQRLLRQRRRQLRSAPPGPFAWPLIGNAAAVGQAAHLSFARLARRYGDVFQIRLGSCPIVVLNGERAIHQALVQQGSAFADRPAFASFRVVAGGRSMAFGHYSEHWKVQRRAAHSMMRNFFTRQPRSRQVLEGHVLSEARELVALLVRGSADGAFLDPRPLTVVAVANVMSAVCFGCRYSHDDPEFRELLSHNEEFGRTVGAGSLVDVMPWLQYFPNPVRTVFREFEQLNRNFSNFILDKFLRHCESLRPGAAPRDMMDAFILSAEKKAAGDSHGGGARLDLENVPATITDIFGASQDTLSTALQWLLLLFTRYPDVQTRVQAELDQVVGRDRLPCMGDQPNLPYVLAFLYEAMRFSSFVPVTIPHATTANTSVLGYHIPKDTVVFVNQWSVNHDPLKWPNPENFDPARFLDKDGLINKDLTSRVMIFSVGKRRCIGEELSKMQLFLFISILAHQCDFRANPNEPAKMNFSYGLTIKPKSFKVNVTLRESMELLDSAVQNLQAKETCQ
Description: (§3) Site directed mutagenesis was used to probe the importance of specific active-site contacts identified through the structural assessment (Fig. 3a, b) and simulations. In all cases, conservative mutations were made to maintain polar or hydrophobic character and approximate size. The aromatic residues that frame the inhibitor binding site, Phe143 and Phe231, were mutated to Leu to determine the importance of the π interactions. In addition, the Ser127 residue, located in the upper corner of the active site on the B-C loop, was chosen for mutation based on the simulations. This amino acid transiently contacts the inhibitors, but also forms a hydrogen bond with Asp326 of the I-helix, and thus may impact the position of this helix with regards to the B-C loop. […] Rather than directly mutating these residues in the I-helix, neighboring residues Gln332 and Asp333 were targeted, with the hope of interrupting amino acid interactions that position the helix within the active site.
(§4) The ratio of IC50 values for the WT vs. the mutant are shown in Fig. 3c and reflects the importance of the specific contact; the log of the value is used to aid in visualization.
(§5) Cell lines were seeded onto Geltrex coated 96-well plates at 40,000 cells/well, and grown overnight in DMEM media containing 1 μg/mL tetracycline. The media was then replaced with Opti-MEM supplemented with 2% FBS and 1 μg/mL tetracycline. Compounds were serially diluted in Opti-MEM supplemented with 2% FBS and 1 μg/mL tetracycline and an equal volume of compound added to the cells (n = 3). Following a 1 h incubation, resorufin ethyl ether (REE; for CYP1B1 and 1A1) or dibenzylfluorescein (DBF; for 19A1) was added to the cells for a total concentration of 5 μM for REE and 1 μM for DBF. […] Dose–response curves were generated in Prism and normalized using the no-compound control (set as 100% activity) and the no-cell control (set as 0% activity; this value in the raw data reflects the background fluorescence of the dye alone).

CYP1B1 Q332E = target: T2, CYP1B1 Q332E (Homo sapiens, UniProt Q16678, Q332E); experiment: In cell CYP1B1 activity assay, Q332E variant; conditions: for logSI Q332E: log of the ratio of IC50 values mutant vs WT (Fig. 3c)
T2 sequence (Q16678 1-543 Q332E): T1 sequence (Q16678 1-543 S127A) with A127S, Q332E
Description: as §3, §4, §5

CYP1B1 F134L = target: T3, CYP1B1 F134L (Homo sapiens, UniProt Q16678, F134L); experiment: In cell CYP1B1 activity assay, F134L variant; conditions: for logSI F134L: log of the ratio of IC50 values mutant vs WT (Fig. 3c)
T3 sequence (Q16678 1-543 F134L): T1 sequence (Q16678 1-543 S127A) with A127S, F134L

HEK293 T-Rex cell line = experiment: Cellular viability (resazurin to resorufin, 72 h); assay type: cell-based, human; conditions: HEK293 T-Rex, after 72 hrs
Description: (§1) The cells were >70% viable at 72 h with 10 μM compound, as quantified by metabolically active cells determined by the conversion of resazurin to resorufin (Supplementary Figs. 18–20).
(§2) The parental HEK T-Rex cell line was maintained as above, in the absence of Zeocin. Compounds were serially diluted in media, and the cells were dosed from 0–30 μM compound, and then incubated at 37 °C (n = 3). […] The cells were incubated with the compound in the dark for 30 min prior to light exposure, using the same parameters as in the enzyme activity assay, and then treated as above.

[1] = Cellular viability (resazurin to resorufin, 72 h); assay type: cell-based, human; conditions: human, parental HEK293 T-Rex cells, HEK293 T-Rex, after 72 hrs; for viability at 72 h, 1.11 μM: Log Conc 0.045757; for viability at 72 h, 3.33 μM: Log Conc 0.522879; for viability at 72 h, 30 μM: Log Conc 1.47712; for viability at 72 h, 0.37 μM: Log Conc -0.43136; for viability at 72 h, 0.123 μM: Log Conc -0.90849; for viability at 72 h, 0.0412 μM: Log Conc -1.38561; for viability at 72 h, 0.0137 μM: Log Conc -1.86273
Description: as §1, §2

[2] = Stability of compounds in human liver microsomes; conditions: for Remaining, % (NCF=60min): human liver microsomes, no co-factor (no NADPH); for CLint scaled / Remaining, % (T=60min) / half-life / microsomal CLint: human, liver microsomes

Row | logSI S127A (CYP1B1 S127A) | logSI Q332E (CYP1B1 Q332E) | logSI F134L (CYP1B1 F134L) | Remaining, % (NCF=60min) [2] [%] | SMILES | % Viable (HEK293 T-Rex cell line; Log Conc 0.045757) | % Viable (HEK293 T-Rex cell line; Log Conc 0.522879) | % Viable (HEK293 T-Rex cell line; Log Conc 1) | % Viable (HEK293 T-Rex cell line; Log Conc 1.47712) | % Viable (HEK293 T-Rex cell line; Log Conc -0.43136) | % Viable (HEK293 T-Rex cell line; Log Conc -0.90849) | % Viable (HEK293 T-Rex cell line; Log Conc -1.38561) | % Viable (HEK293 T-Rex cell line; Log Conc -1.86273) | viability at 72 h, 1.11 μM [1] [%] | viability at 72 h, 3.33 μM [1] [%] | viability at 72 h, 30 μM [1] [%] | viability at 72 h, 0.37 μM [1] [%] | viability at 72 h, 0.123 μM [1] [%] | viability at 72 h, 0.0412 μM [1] [%] | viability at 72 h, 0.0137 μM [1] [%] | CLint scaled [2] [mL/min/kg] | other results
1 | -1.5 | 0.6 | 1 | 77.1 | COc1cc(/C=C/c2ccc(OC)cc2OC)cc(OC)c1 [Compound 1, reference compound] | 81.8963% and 90.1938% | 71.5944% and 78.1539% | 79.5836% and 68.5529% | 62.2316% and 63.1567% | 95.7862% and 89.6612% | 94.8612% and 92.8008% | 93.2073% and 97.8887% | 106.593% and 96.3469% | 91.2 | 76.6 | 68.4 | 98.9 | 98.4 | 97.1 | 99.3 |  | 
2 | 1.7 | 0.7 | 0.5 | 96.5 | COc1ccc(/C=C/c2ccncn2)c(OC)c1 [Compound 2] | 94.5248% and 84.1248% | 84.1669% and 88.3577% | 69.8564% and 78.2941% | 51.1449% and 56.2608% | 92.2822% and 92.2261% | 98.0989% and 92.2261% | 94.0623% and 98.2391% | 98.7016% and 97.4401% | 97.3 | 79.8 | 51.9 | 85.2 | 89.2 | 92 | 93.4 | 181 | IC50 (CYP1B1 S127A): 3740 nM; Ratio IC50 (mutant)/ IC50 (WT), S127A (CYP1B1 S127A): 50; IC50 (CYP1B1 Q332E): 402 nM; Ratio IC50 (mutant)/ IC50 (WT), Q332E (CYP1B1 Q332E): 5.3; IC50 (CYP1B1 F134L): 240 nM; Ratio IC50 (mutant)/ IC50 (WT), F134L (CYP1B1 F134L): 3; viability at 72 h, 10 μM ([1]; Log Conc 1): 64.5%; Remaining, % (T=60min) [2]: 0.4%; half-life [2]: 6.9 min; microsomal CLint [2]: 201 µL/min/mg

Row | SMILES | logSI S127A (CYP1B1 S127A) | logSI Q332E (CYP1B1 Q332E) | logSI F134L (CYP1B1 F134L) | Remaining, % (NCF=60min) [2] [%] | % Viable (HEK293 T-Rex cell line; Log Conc 0.045757) | % Viable (HEK293 T-Rex cell line; Log Conc 0.522879) | % Viable (HEK293 T-Rex cell line; Log Conc 1) | % Viable (HEK293 T-Rex cell line; Log Conc 1.47712) | % Viable (HEK293 T-Rex cell line; Log Conc -0.43136) | % Viable (HEK293 T-Rex cell line; Log Conc -0.90849) | % Viable (HEK293 T-Rex cell line; Log Conc -1.38561) | % Viable (HEK293 T-Rex cell line; Log Conc -1.86273) | viability at 72 h, 1.11 μM [1] [%] | viability at 72 h, 3.33 μM [1] [%] | viability at 72 h, 30 μM [1] [%] | viability at 72 h, 0.37 μM [1] [%] | viability at 72 h, 0.123 μM [1] [%] | viability at 72 h, 0.0412 μM [1] [%] | viability at 72 h, 0.0137 μM [1] [%] | CLint scaled [2] [mL/min/kg] | other results
3 | COc1ccc(C=Cc2ccncc2)c(OC)c1 [Compound 3] | 2.2 | 2.2 | 1.7 | 92.1 | 97.2552% and 97.1817% | 116.518% and 106.568% and 128.158% | 141.882% and 148.217% and 166.23% | 142.875% and 157.603% | 103.982% and 85.443% | 97.2307% and 93.9713% | 97.0469% and 84.1196% | 98.309% and 101.936% | 96.6 |  | 140 | 92.3 | 93.3 | 90.3 | 103 | 155 | Remaining, % (T=60min) [2]: 0.6%; half-life [2]: 8.07 min; microsomal CLint [2]: 172 µL/min/mg
